Assay results taken from patent US9447136B2, “Semisynthetic derivatives of Nystatin A1” (BLIRT S.A., priority 2012, dated 2016).
≈ marks a conversion by molar mass, not a printed value.

Key:
LLC-PK1 = test: Cytotoxic activity against mammalian cells in tissue culture (MTT); assay type: cell-based, pig
Experimental: (§1) For examinations were used selected cell lines: CCRF-CEM—human acute lymphoblastic leukemia; HepG2—human malignant hepatoma; LLC-PK1—epithelial cell of pig kidney; All lines were from ATCC collection.
(§2) The study are conducted using described below methods of culturing and determination of cytotoxic activity.
(§3) CCRF-CEM cells were cultured in medium RPMI 1640+10% fetal bovine serum (FBS), LLC-PK1 cells in medium Medium 199+3% FBS, HepG2 cells in medium MEM+10% FBS. All media contained 100 μg/ml of penicillin G and streptomycin. 24-wells microplates containing appropriate medium were inoculated with the cells in amount of 1.2×10^4 cells/well and allowed to stand overnight. Next, tested compounds as solution in dimethylsulfoxide (DMSO) were added in volume of 10 μl (serial 2× dilutions). To control well 10 μl of DMSO was added. Microplates with cell suspensions were incubated for 120 h at temperature 37° C. at atmosphere of 95%/5% CO2. After incubation, to all wells 200 μl of solution of 3-(4,5-dimethylthiazole-2-yl)-2,5-diphenylotetrazole bromide (MTT) in PBS (4 mg/ml) was added and plates were further incubated for 4 h at 37° C. Next, to dissolve crystals of formazane 1 ml of DMSO was added and absorption of solutions was measured at the wavelength λ=540 nm (A540), using a microplates reader (Victor^3, Perkin-Wallac). […] From these graphs IC50 values were read, that is concentration of tested compound in the presence at which A540 value is half of A540 value measured in the control sample.

Human erythrocytes = test: Hemotoxicity (hemolytic activity)
How it was run: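 Human erythrocytes in saline (2×10^7/ml) were incubated with serially diluted compound at 37 °C for 30 min, then centrifuged. Released hemoglobin was read as A540 against 0.1% Triton X-100 as full hemolysis. EH50 is the interpolated concentration giving 50% of the control A540.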

Candida albicans B3 = test: Antifungal activity towards resistant (MDR) strains; assay type: cell-based; conditions: fluconazole sensitive, parent strain for B4
Experimental: (§4) The determination of antifungal activity was performed by the serial dilutions method in buffered RPMI 1640 medium, in a 96-wells microplates, according to the standard procedure (National Committee for Clinical Laboratory Standards. Reference method for broth dilution antifungal susceptibility testing of yeast, approved standard, 2nd ed. M27-A2 vol. 22 Wayne, Pa., 2002). The optical density of cells suspension was measured using a microplates reader (Victor^3, Perkin-Elmer) at the wavelength λ=660 nm (A660). On the basis of received results the diagrams on interrelation between the A660 value and the concentration of tested compound were made. From these graphs MIC values were read, that are the concentrations of tested compounds, in the presence at which A660 value is at most 20% of A660 value measured in control sample.

Candida albicans F5 = test: as above; assay type: cell-based; conditions: fluconazole-resistant due to the overexpression of CaMDR1 and ERG11
Experimental: as §4

Candida albicans STY19 = test: as above; assay type: cell-based; conditions: 5674 mutant derivative, deletion of CDR1
Experimental: as §4

Candida albicans F2 = test: as above; assay type: cell-based; conditions: fluconazole sensitive, parent strain for F5
Experimental: as §4

Candida albicans B4 = test: as above; assay type: cell-based; conditions: fluconazole-resistant due to the overexpression of CaMDR1
Experimental: as §4

Candida albicans 5674 = test: as above; assay type: cell-based; conditions: C. albicans 5674 overexpressing CDR1 and CDR2
Experimental: as §4

Candida albicans STY31 = test: as above; assay type: cell-based; conditions: 5674 mutant derivative, deletion of CDR1 and CDR2
Experimental: as §4

Candida albicans Gu5 = test: as above; assay type: cell-based; conditions: fluconazole-resistant due to the overexpression of CDR1 and CDR2
Experimental: as §4

Candida albicans STY7 = test: as above; assay type: cell-based; conditions: 5674 mutant derivative, deletion of CDR2
Experimental: as §4

Candida albicans Gu4 = test: as above; assay type: cell-based; conditions: fluconazole sensitive, parent strain for Gu5
Experimental: as §4

[1] = tested on: Candida pseudotropicalis KKP 324; test: Antifungal activity in vitro, serial dilution in RPMI 1640; assay type: cell-based; conditions: Table 2B
How it was run: (§5)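 In buffered RPMI 1640 at pH 7.0, fungi were exposed to serially diluted compound (M27-A2 standard) and turbidity was recorded at 531 nm. Values relative to control: IC50 at 50%, MIC as lowest concentration at ≤20%.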

[2] = tested on: Candida albicans ATCC 10231; test: as above; assay type: cell-based
How it was run: as §5

[3] = tested on: Candida lipolytica KKP 322; test: as above; assay type: cell-based; conditions: Table 2B
How it was run: as §5

[4] = tested on: Trichoderma viride LOCK E159; test: as above; assay type: cell-based; conditions: Table 2B
How it was run: as §5

[5] = tested on: Candida parapsilosis DSM 5784; test: as above; assay type: cell-based; conditions: Table 2B
How it was run: as §5

Candida arborea KKP 319 = test: as above; assay type: cell-based; conditions: Table 2B
How it was run: as §5

[6] = tested on: Saccharomyces cerevisiae ATCC 9763; test: as above; assay type: cell-based
How it was run: as §5

[7] = tested on: Candida stellatoidea CBS 1905; test: as above; assay type: cell-based; conditions: Table 2B
How it was run: as §5

[8] = tested on: Candida dubliniensis CBS 7987; test: as above; assay type: cell-based; conditions: Table 2B
How it was run: as §5

Candida krusei DSM 6128 = test: as above; assay type: cell-based; conditions: Table 2A; RPMI 1640, pH 7.0
How it was run: as §5

[9] = tested on: Candida tropicalis KKP 334; test: as above; assay type: cell-based; conditions: Table 2A; RPMI 1640, pH 7.0
How it was run: as §5

[10] = tested on: Aspergillus niger LOCK E201; test: as above; assay type: cell-based; conditions: Table 2B
How it was run: as §5

[11] = tested on: Candida quilliermondii DSM 11947; test: as above; assay type: cell-based; conditions: Table 2B
How it was run: as §5

[12] = tested on: Candida glabrata DSM 11226; test: as above; assay type: cell-based; conditions: Table 2A; RPMI 1640, pH 7.0
How it was run: as §5

CCRF-CEM = test: Cytotoxic activity against mammalian cells in tissue culture (MTT); assay type: cell-based, human
Experimental: as §1, §2, §3

HepG2 = test: as above; assay type: cell-based, human
Experimental: as §1, §2, §3

[13] = Table 2A, RPMI 1640, pH 7.0, A531 at most 20% of control

CCCN(CCC)[C@@H]1[C@H](O)[C@H](O[C@H]2/C=C/C=C/C=C/C=C/CC/C=C/C=C/[C@H](C)[C@@H](O)[C@@H](C)[C@H](C)OC(=O)C[C@H](O)C[C@H](O)C[C@H](O)CC[C@@H](O)[C@H](O)C[C@]3(O)C[C@H](O)[C@@H](C(=O)O)[C@H](C2)O3)O[C@H](C)[C@H]1O [Compound N22, N,N-di-n-propylnystatin A1]
Cytotoxicity IC50 LLC-PK1 (LLC-PK1): >100 µg/mL | EH10 (Human erythrocytes): 202.34 µg/mL | MIC Candida albicans B3 (Candida albicans B3): 8 µg/mL (≈ 7.92 µM) | MIC Candida albicans F5 (Candida albicans F5): 4 µg/mL (≈ 3.96 µM) | MIC Candida albicans STY19 (Candida albicans STY19): 4 µg/mL (≈ 3.96 µM) | MIC Candida albicans F2 (Candida albicans F2): 4 µg/mL (≈ 3.96 µM) | MIC Candida albicans B4 (Candida albicans B4): 8 µg/mL (≈ 7.92 µM) | MIC Candida albicans 5674 (Candida albicans 5674): 4 µg/mL (≈ 3.96 µM) | MIC Candida albicans STY31 (Candida albicans STY31): 4 µg/mL (≈ 3.96 µM) | MIC Candida albicans Gu5 (Candida albicans Gu5): 8 µg/mL (≈ 7.92 µM) | MIC Candida albicans STY7 (Candida albicans STY7): 4 µg/mL (≈ 3.96 µM) | MIC Candida albicans Gu4 (Candida albicans Gu4): 8 µg/mL (≈ 7.92 µM) | MIC Candida pseudotropicalis KKP 324 [1]: 4 µg/mL (≈ 3.96 µM) | Antifungal activity Candida albicans ATCC 10231 IC50 ([2]; Table 2A, RPMI 1640, pH 7.0, A531 50% of control): 3.14 µg/mL | Antifungal activity Candida albicans ATCC 10231 MIC [2, 13]: 4 µg/mL | MIC Candida albicans ATCC 10231 ([2]; Table 2B): 4 µg/mL (≈ 3.96 µM) | MIC Candida lipolytica KKP 322 [3]: 4 µg/mL (≈ 3.96 µM) | MIC Trichoderma viride LOCK E159 [4]: 8 µg/mL (≈ 7.92 µM) | MIC Candida parapsilosis DSM 5784 [5]: 8 µg/mL (≈ 7.92 µM) | MIC Candida arborea KKP 319 (Candida arborea KKP 319): 8 µg/mL (≈ 7.92 µM) | Antifungal activity Saccharomyces cerevisiae ATCC 9763 MIC [6, 13]: 2 µg/mL | MIC Saccharomyces cerevisiae ATCC 9763 ([6]; Table 2B): 2 µg/mL (≈ 1.98 µM) | MIC Candida stellatoidea CBS 1905 [7]: 4 µg/mL (≈ 3.96 µM) | MIC Candida dubliniensis CBS 7987 [8]: 2 µg/mL (≈ 1.98 µM) | Antifungal activity Candida krusei DSM 6128 MIC (Candida krusei DSM 6128): 8 µg/mL | Antifungal activity Candida tropicalis KKP 334 MIC [9]: 4 µg/mL | MIC Aspergillus niger LOCK E201 [10]: 8 µg/mL (≈ 7.92 µM) | MIC Candida quilliermondii DSM 11947 [11]: 8 µg/mL (≈ 7.92 µM) | Antifungal activity Candida glabrata DSM 11226 MIC [12]: 4 µg/mL | Cytotoxicity IC50 CCRF-CEM (CCRF-CEM): >100 µg/mL | Cytotoxicity IC50 HepG2 (HepG2): 82.9 ± 19.87 µg/mL
